Source: the supplement of paper PMC10307832

Key:
Assay in all cases: relative viability (nuclei count vs DMSO), 5 days (fraction); higher = more cells survive
[1] = tested on: HCC-366
Method in brief: (§1)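 Lung cancer cell lines, seeded in 1536-well plates, were treated the following day by pin tool with a single drug or with five library-drug doses (not always all listed) in √10 steps on top of a fixed anchor-drug dose. Cells were fixed and nuclei stained in one step after 5 days, and nuclei were counted. Relative viability is the nuclei count for treated wells divided by that for vehicle wells, reported as medians of duplicate plates.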

[2] = tested on: A549
Method in brief: as §1

[3] = tested on: NCI-H1437
Method in brief: as §1

[4] = tested on: EBC-1
Method in brief: as §1

[5] = tested on: Calu-6
Method in brief: as §1

[6] = tested on: IA-LM
Method in brief: as §1

[7] = tested on: NCI-H1299
Method in brief: as §1

[8] = tested on: HCC-44
Method in brief: as §1

[9] = tested on: NCI-H1703
Method in brief: as §1

With `NC(=O)Nc1cc(-c2cccc(F)c2)sc1C(=O)N[C@H]1CCCNC1` [AZD7762] + CS(=O)(=O)CCNCc1ccc(-c2ccc3ncnc(Nc4ccc(OCc5cccc(F)c5)c(Cl)c4)c3c2)o1 [Lapatinib] (partner 2 µM) the relative viability ([1]; first compound 0.01 µM) was 0.991, the relative viability ([1]; first compound 0.03162 µM) was 1.12 and the relative viability ([1]; first compound 0.1 µM) was 0.879. For the same molecule, the relative viability ([1]; first compound 0.3162 µM) was 0.375, the relative viability ([1]; first compound 1 µM) was 0.0771 and the relative viability ([2]; first compound 0.01 µM) was 1.12. It also gave a relative viability ([2]; first compound 0.03162 µM) of 1.02, a relative viability ([2]; first compound 0.1 µM) of 1.05 and a relative viability ([2]; first compound 0.3162 µM) of 0.823. It also gave a relative viability ([2]; first compound 1 µM) of 0.198, a relative viability ([3]; first compound 0.01 µM) of 0.809 and a relative viability ([3]; first compound 0.03162 µM) of 0.647. For the same molecule, the relative viability ([3]; first compound 0.1 µM) was 0.875, the relative viability ([3]; first compound 0.3162 µM) was 0.841 and the relative viability ([3]; first compound 1 µM) was 0.526. The relative viability ([4]; first compound 0.01 µM) was 0.215, the relative viability ([4]; first compound 0.03162 µM) was 0.191 and the relative viability ([4]; first compound 0.1 µM) was 0.234. The relative viability ([4]; first compound 0.3162 µM) was 0.199, the relative viability ([4]; first compound 1 µM) was 0.186 and the relative viability ([5]; first compound 0.01 µM) was 1.11. The relative viability ([5]; first compound 0.03162 µM) was 1.02, the relative viability ([5]; first compound 0.1 µM) was 0.96 and the relative viability ([5]; first compound 0.3162 µM) was 0.2. The relative viability ([5]; first compound 1 µM) was 0.147, the relative viability ([6]; first compound 0.01 µM) was 1.13 and the relative viability ([6]; first compound 0.03162 µM) was 1.11. The relative viability ([6]; first compound 0.1 µM) was 1.1, the relative viability ([6]; first compound 0.3162 µM) was 0.798 and the relative viability ([6]; first compound 1 µM) was 0.16. It also gave a relative viability ([7]; first compound 0.01 µM) of 0.955, a relative viability ([7]; first compound 0.03162 µM) of 0.963 and a relative viability ([7]; first compound 0.1 µM) of 0.968. For the same molecule, the relative viability ([7]; first compound 0.3162 µM) was 0.811, the relative viability ([7]; first compound 1 µM) was 0.289 and the relative viability ([8]; first compound 0.01 µM) was 1.11. The relative viability ([8]; first compound 0.03162 µM) was 0.952, the relative viability ([8]; first compound 0.1 µM) was 0.998 and the relative viability ([8]; first compound 0.3162 µM) was 0.932. For the same molecule, the relative viability ([8]; first compound 1 µM) was 0.99, the relative viability ([9]; first compound 0.01 µM) was 0.627 and the relative viability ([9]; first compound 0.03162 µM) was 0.31. The relative viability ([9]; first compound 0.1 µM) was 0.238, the relative viability ([9]; first compound 0.3162 µM) was 0.176 and the relative viability ([9]; first compound 1 µM) was 0.156.
`NC(=O)Nc1cc(-c2cccc(F)c2)sc1C(=O)N[C@H]1CCCNC1` [AZD7762] + CS(=O)(=O)N1CCN(Cc2cc3nc(-c4cccc5[nH]ncc45)nc(N4CCOCC4)c3s2)CC1 [Pictilisib] (partner 1 µM) was tested, and the relative viability ([1]; first compound 0.01 µM) was 0.153, the relative viability ([1]; first compound 0.03162 µM) was 0.128 and the relative viability ([1]; first compound 0.1 µM) was 0.213. For the same molecule, the relative viability ([1]; first compound 0.3162 µM) was 0.137, the relative viability ([1]; first compound 1 µM) was 0.133 and the relative viability ([2]; first compound 0.01 µM) was 0.548. It also gave a relative viability ([2]; first compound 0.03162 µM) of 0.587, a relative viability ([2]; first compound 0.1 µM) of 0.641 and a relative viability ([2]; first compound 0.3162 µM) of 0.368. The relative viability ([2]; first compound 1 µM) was 0.107, the relative viability ([3]; first compound 0.01 µM) was 0.501 and the relative viability ([3]; first compound 0.03162 µM) was 0.442. It also gave a relative viability ([3]; first compound 0.1 µM) of 0.483, a relative viability ([3]; first compound 0.3162 µM) of 0.555 and a relative viability ([3]; first compound 1 µM) of 0.477. For the same molecule, the relative viability ([4]; first compound 0.01 µM) was 0.429, the relative viability ([4]; first compound 0.03162 µM) was 0.447 and the relative viability ([4]; first compound 0.1 µM) was 0.375. The relative viability ([4]; first compound 0.3162 µM) was 0.28, the relative viability ([4]; first compound 1 µM) was 0.166 and the relative viability ([5]; first compound 0.01 µM) was 0.882. For the same molecule, the relative viability ([5]; first compound 0.03162 µM) was 0.875, the relative viability ([5]; first compound 0.1 µM) was 0.691 and the relative viability ([5]; first compound 0.3162 µM) was 0.17. It also gave a relative viability ([5]; first compound 1 µM) of 0.113, a relative viability ([6]; first compound 0.01 µM) of 0.48 and a relative viability ([6]; first compound 0.03162 µM) of 0.456. For the same molecule, the relative viability ([6]; first compound 0.1 µM) was 0.538, the relative viability ([6]; first compound 0.3162 µM) was 0.48 and the relative viability ([6]; first compound 1 µM) was 0.0832. For the same molecule, the relative viability ([7]; first compound 0.01 µM) was 0.98, the relative viability ([7]; first compound 0.03162 µM) was 0.882 and the relative viability ([7]; first compound 0.1 µM) was 0.622. For the same molecule, the relative viability ([7]; first compound 0.3162 µM) was 0.248, the relative viability ([7]; first compound 1 µM) was 0.116 and the relative viability ([8]; first compound 0.01 µM) was 0.642. For the same molecule, the relative viability ([8]; first compound 0.03162 µM) was 0.627, the relative viability ([8]; first compound 0.1 µM) was 0.584 and the relative viability ([8]; first compound 0.3162 µM) was 0.612. For the same molecule, the relative viability ([8]; first compound 1 µM) was 0.556, the relative viability ([9]; first compound 0.01 µM) was 0.234 and the relative viability ([9]; first compound 0.03162 µM) was 0.252. It also gave a relative viability ([9]; first compound 0.1 µM) of 0.224, a relative viability ([9]; first compound 0.3162 µM) of 0.189 and a relative viability ([9]; first compound 1 µM) of 0.129.
